This assay has as its system Candida albicans ATCC 10231. The experiment in a line: Minimum inhibitory concentration (MIC) by broth microdilution method. It counts as cell-based. The following applies: for MIC value: broth microdilution in MH broth, 37° C., 12 hours, OD600, MIC = lowest concentration that inhibited the growth of more than 90% of the strains; for activity against Candida albicans (in words): summary statement of the MIC experiments. As to the method:
The minimum inhibitory concentration (MIC) values of echinocandin E and echinocandin F were determined by broth microdilution method, and the test strain was Candida albicans ATCC 10231. The MIC value was defined as the lowest antibiotic concentration that inhibited the growth of more than 90% of the strains. Amphotericin B was used as a positive control and echinocandin B as a reference, and each sample was subjected to three parallel experiments.
Candida albicans was cultured in Mueller-Hinton (MH) broth (50 mL 20× Nitrate Salts, 1 mL Trace Elements, and 10.0 g glucose, dissolved in 800 mL ddH2O, adjusted to pH 6.5, fixed to 1 L, added with 16.0 g agar powder, and sterilized at 121° C. for 20 min) (purchased from Hangzhou Basebio Biotechnology Co., Ltd. (Basebio)) and cultured at 37° C. and 180 rpm for 12-16 hours. The fungal solution concentration was controlled to […] by gradient dilution with MH broth.
The sample solution was prepared by dissolving the test samples (amphotericin B, echinocandin B, echinocandin E, echinocandin F) in DMSO to prepare a stock solution with a concentration of 40 μg/ml. An appropriate amount of sterile MH broth medium and the test compounds were added to a 96-well plate, and Candida albicans was quantitatively inoculated so that the total liquid volume in each well was 100 μL. The final concentrations of the compounds were 2, 1.5, 1, 0.8, 0.6, 0.4, 0.2, 0.1, 0.05 and 0 μg/ml, respectively, and DMSO (volume concentration of 5%) was used as a negative control.
The fungal concentration was measured at OD600 using an ELISA reader to determine the MIC value of each sample.

From patent US20250360180A1, “ECHINOCANDIN COMPOUND, AND PREPARATION METHOD THEREFOR AND USE THEREOF” (Zhejiang University, priority 2022, published 2025) come the findings set out here.

Values after ≈ are worked out from the molar mass of the structure shown.

The molecule `C[C@@H]1[C@H](O)[C@@H](C)/C=C/C=C/C=C/C=C/C=C/C=C/C=C/[C@H](O[C@@H]2O[C@H](C)[C@@H](O)[C@H](N)[C@@H]2O)C[C@@H]2O[C@](O)(C[C@@H](O)C[C@@H](O)[C@H](O)CC[C@@H](O)C[C@@H](O)CC(=O)O[C@H]1C)C[C@H](O)[C@H]2C(=O)O` [Amphotericin B, reference compound] came in with an MIC value of 0.2 µg/mL (≈ 0.216 µM).

Turning to echinocandin B [reference compound], the MIC value is 0.4 µg/mL.

On to echinocandin E, for which the MIC value is 0.6 µg/mL and the “activity against Candida albicans (in words)” value (“activity” for short) is on record as “good activity”.

As to echinocandin F, the MIC value was 1.0 µg/mL and the “activity” value is on record as “good activity”.

Take echinocandin G: the MIC value worked out at 0.8 µg/mL and the “activity” value is recorded as “good activity”.

Consider echinocandin H, for which the MIC value was determined as 0.8 µg/mL and the “activity” value is recorded as “good activity”.
